This note sets out measurements from patent publication US20240316022A1 (TYRA BIOSCIENCES, INC., priority 2021, published 2024).

One experiment addresses T1, FGFR2 (Homo sapiens, UniProt P21802).
T1 construct: made in house; host or cells: E. coli derived from BL21, infected with T7 phage
Nature of the experiment: Kinase binding assay (kinase-tagged T7 phage, qPCR), Kd. As to conditions: read-out: FGFR2 (Kd nM).

The target of another experiment is T2, FGFR1 (Homo sapiens, UniProt P11362).
T2 construct: made in house; host or cells: E. coli derived from BL21, infected with T7 phage
T2 sequence (P11362 22-822): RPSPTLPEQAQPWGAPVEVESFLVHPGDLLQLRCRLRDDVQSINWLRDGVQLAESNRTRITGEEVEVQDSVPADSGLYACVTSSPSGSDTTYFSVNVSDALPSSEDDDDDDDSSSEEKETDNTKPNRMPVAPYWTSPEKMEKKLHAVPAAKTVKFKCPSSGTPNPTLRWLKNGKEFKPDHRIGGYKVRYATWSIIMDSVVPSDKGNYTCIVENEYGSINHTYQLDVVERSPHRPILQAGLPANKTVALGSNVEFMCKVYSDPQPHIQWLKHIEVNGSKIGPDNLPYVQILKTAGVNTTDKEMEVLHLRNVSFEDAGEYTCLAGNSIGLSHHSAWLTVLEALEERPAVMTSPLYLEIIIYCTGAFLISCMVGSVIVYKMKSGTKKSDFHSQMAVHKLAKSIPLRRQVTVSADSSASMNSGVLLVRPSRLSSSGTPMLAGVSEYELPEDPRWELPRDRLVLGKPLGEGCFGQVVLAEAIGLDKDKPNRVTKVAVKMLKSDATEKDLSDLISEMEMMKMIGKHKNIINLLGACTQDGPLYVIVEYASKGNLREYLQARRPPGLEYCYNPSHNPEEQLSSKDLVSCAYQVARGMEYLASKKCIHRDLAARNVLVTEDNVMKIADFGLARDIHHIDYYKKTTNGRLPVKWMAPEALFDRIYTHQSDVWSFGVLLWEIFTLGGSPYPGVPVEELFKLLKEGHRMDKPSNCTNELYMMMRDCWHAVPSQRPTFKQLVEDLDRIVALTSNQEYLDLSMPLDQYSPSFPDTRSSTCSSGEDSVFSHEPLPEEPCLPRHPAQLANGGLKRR
The experiment is described as above. As to conditions: read-out: FGFR1 (Kd nM).

The next experiment has as its target T3, BCR-FGFR4 Ba/F3 (Homo sapiens, UniProt P22455).
T3 construct: host or cells: Ba/F3; the other entry of the earlier key: BCR (P11274, Breakpoint cluster region protein)
Nature of the experiment: Ba/F3 cell viability assay (CellTiter-Glo 2.0). Type of experiment: cell-based. The settings on record: Ba/F3 BCR-FGFR4 cells, 48 hours. From the text:
(§1) Experimental Purpose: Recombinant kinase fusions are transduced into parental Ba/F3, which becomes dependent upon this constitutive kinase activity for IL3-independent survival. Inhibition of kinase activity leads to cell death, which is monitored using CellTiter-Glo® 2.0 (Promega) which measures intracellular ATP concentration that in turn serves as a marker for viability. BCR-FGFR4 Ba/F3, BCR-FGFR1 Ba/F3 and FGFR3-BAIAP2L1 Ba/F3 were obtained from Advanced Cellular Dynamics (Seattle, WA)
(§2) Cell Viability Assay Procedure: Cell Titer-Glo® 2.0 Luminescent cell viability assay reagent was purchased from Promega (Madison, WI). BCR-FGFR4 Ba/F3, BCR-FGFR1 Ba/F3 and FGFR3-BAIAP2L1 Ba/F3 cells were cultured in RPMI1640 media supplemented with 10% fetal bovine serum. Cultures were maintained at 37° C. in a humidified atmosphere of 5% CO2 and 95% air.
(§3) Cells were plated in 96-well clear bottom/white plates (Corning #3903) at 10,000 cells/well in 100 μl of media, incubated overnight. The next day, test compound DMSO stock solutions were made at 10 mM and 2 μM final concentration. Compounds were then added to cells in a 9-dose, 10-fold dilution series starting at 30 μM with an HP 300e Digital Dispenser (each dose was applied in triplicate). DMSO was backfilled to each well up to 301 nL total volume of test compound+DMSO, and a total of 301 nL DMSO was added to a control/no test compound well in triplicate. The cells in cell culture plates were incubated with the compounds at 37° C. and 5% CO2 for 48 hours. Then 50 μl of Cell Titer Glo 2.0 reagent was added to each well of the cell culture plates. The contents were covered from light and mixed on an orbital shaker at room temperature for 10 min. Luminescence was recorded by a Synergy H1 Microplate Reader (Biotek, Winooski, VT). Cells were assessed as a percentage of DMSO only treated control cells. Curves were plotted and IC50 values were calculated using the GraphPad Prism 8 program based on a sigmoidal dose-response equation (4 parameter).

Another experiment has as its target T4, FGFR4 (Homo sapiens, UniProt P22455).
T4 construct: made in house; host or cells: E. coli derived from BL21, infected with T7 phage
Nature of the experiment: Kinase binding assay (kinase-tagged T7 phage, qPCR), Kd. The settings on record: read-out: FGFR4 (Kd nM).

The next experiment has as its target T5, FGFR3 (Homo sapiens, UniProt P22607).
T5 construct: made in house; host or cells: E. coli derived from BL21, infected with T7 phage
The description is as above. As to conditions: read-out: FGFR3 (Kd nM).

The target of the next experiment is T6, BCR-FGFR1 Ba/F3 (Homo sapiens, UniProt P11362).
T6 construct: host or cells: Ba/F3; the other entry of the earlier key: BCR (P11274, Breakpoint cluster region protein)
T6 sequence (P11362 478-767 limits assumed): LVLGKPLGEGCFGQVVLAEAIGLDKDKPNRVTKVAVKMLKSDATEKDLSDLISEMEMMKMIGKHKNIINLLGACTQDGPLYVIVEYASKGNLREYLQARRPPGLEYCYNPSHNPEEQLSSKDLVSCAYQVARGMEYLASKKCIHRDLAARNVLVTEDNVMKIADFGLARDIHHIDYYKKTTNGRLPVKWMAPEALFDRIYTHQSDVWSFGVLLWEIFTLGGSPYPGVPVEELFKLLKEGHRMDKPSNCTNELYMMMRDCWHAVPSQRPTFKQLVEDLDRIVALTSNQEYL
As to the kind of experiment: Ba/F3 cell viability assay (CellTiter-Glo 2.0). Type of experiment: cell-based. As to conditions: Ba/F3 BCR-FGFR1 cells, 48 hours.
Source text: as §1, §2, §3

A further experiment deals with T7, FGFR3-BAIAP2L1 Ba/F3 (Homo sapiens, UniProt P22607).
T7 construct: host or cells: Ba/F3; the other entry of the earlier key: BAIAP2L1 (Q9UHR4, BAR/IMD domain-containing adapter protein 2-like 1)
T7 sequence (P22607 397-758 limits assumed): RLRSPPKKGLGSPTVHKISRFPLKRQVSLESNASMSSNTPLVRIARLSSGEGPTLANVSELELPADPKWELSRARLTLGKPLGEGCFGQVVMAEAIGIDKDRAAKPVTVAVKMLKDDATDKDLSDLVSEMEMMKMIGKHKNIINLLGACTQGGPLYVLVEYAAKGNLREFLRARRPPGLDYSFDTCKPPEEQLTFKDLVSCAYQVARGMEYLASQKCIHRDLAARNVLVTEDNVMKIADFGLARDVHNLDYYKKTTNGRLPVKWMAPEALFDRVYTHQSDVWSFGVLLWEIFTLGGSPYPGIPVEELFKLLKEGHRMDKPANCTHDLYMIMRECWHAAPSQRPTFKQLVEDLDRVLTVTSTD
As to the kind of experiment: Ba/F3 cell viability assay (CellTiter-Glo 2.0). The settings on record: Ba/F3 FGFR3-BAIAP2L1 cells, 48 hours. Type of experiment: cell-based.
Source text: as §1, §2, §3

Bounds are passed on as bounds.

T5 sequence (P22607 23-806): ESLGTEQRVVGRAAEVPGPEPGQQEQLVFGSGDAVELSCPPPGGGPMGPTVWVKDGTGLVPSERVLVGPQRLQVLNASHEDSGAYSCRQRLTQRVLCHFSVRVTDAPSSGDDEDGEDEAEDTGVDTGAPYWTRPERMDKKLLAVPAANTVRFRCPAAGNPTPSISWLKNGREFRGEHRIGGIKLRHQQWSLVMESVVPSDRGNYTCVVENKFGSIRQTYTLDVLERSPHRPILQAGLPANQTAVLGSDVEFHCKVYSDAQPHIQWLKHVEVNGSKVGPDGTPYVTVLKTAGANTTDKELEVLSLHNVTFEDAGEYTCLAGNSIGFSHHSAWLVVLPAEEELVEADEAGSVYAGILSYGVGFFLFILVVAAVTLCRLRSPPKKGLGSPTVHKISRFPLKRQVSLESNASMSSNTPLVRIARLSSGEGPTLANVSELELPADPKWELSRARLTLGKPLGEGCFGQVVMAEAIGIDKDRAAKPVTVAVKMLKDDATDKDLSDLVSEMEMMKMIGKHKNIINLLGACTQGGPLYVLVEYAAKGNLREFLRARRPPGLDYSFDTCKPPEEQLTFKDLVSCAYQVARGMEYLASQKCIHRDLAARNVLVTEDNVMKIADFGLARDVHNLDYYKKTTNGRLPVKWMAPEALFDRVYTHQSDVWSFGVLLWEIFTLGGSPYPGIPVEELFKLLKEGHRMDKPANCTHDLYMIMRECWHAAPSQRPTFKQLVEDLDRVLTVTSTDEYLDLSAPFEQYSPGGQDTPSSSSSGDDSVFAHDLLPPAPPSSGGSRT
T3 sequence (P22455 467-755 limits assumed): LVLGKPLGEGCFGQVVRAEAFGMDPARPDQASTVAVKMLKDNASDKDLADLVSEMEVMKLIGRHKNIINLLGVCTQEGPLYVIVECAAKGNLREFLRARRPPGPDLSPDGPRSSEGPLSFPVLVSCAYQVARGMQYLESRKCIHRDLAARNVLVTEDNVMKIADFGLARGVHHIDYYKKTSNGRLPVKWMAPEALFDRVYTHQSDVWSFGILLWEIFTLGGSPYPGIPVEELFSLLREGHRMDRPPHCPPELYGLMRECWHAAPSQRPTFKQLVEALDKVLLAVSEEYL
T1 sequence (P21802 22-821): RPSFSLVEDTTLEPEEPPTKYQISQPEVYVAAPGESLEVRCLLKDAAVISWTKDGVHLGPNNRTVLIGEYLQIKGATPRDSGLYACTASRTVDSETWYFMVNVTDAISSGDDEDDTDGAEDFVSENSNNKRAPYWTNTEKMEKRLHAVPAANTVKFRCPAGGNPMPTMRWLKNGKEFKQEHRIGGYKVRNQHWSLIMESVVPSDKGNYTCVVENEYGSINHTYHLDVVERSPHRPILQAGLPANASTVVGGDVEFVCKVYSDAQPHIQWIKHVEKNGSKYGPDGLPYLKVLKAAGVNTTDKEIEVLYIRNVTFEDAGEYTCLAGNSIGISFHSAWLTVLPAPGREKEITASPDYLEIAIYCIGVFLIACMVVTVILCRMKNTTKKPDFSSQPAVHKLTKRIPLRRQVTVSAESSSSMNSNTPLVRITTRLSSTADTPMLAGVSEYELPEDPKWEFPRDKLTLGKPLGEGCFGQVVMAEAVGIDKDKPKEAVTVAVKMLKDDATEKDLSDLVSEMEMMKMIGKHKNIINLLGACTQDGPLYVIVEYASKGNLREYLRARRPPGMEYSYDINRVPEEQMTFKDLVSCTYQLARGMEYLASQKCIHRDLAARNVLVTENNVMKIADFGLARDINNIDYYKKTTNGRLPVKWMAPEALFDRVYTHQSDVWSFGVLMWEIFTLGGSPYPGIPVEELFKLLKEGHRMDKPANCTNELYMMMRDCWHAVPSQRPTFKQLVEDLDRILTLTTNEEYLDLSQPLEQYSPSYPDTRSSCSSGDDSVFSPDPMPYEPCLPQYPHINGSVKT
T4 sequence (P22455 22-802): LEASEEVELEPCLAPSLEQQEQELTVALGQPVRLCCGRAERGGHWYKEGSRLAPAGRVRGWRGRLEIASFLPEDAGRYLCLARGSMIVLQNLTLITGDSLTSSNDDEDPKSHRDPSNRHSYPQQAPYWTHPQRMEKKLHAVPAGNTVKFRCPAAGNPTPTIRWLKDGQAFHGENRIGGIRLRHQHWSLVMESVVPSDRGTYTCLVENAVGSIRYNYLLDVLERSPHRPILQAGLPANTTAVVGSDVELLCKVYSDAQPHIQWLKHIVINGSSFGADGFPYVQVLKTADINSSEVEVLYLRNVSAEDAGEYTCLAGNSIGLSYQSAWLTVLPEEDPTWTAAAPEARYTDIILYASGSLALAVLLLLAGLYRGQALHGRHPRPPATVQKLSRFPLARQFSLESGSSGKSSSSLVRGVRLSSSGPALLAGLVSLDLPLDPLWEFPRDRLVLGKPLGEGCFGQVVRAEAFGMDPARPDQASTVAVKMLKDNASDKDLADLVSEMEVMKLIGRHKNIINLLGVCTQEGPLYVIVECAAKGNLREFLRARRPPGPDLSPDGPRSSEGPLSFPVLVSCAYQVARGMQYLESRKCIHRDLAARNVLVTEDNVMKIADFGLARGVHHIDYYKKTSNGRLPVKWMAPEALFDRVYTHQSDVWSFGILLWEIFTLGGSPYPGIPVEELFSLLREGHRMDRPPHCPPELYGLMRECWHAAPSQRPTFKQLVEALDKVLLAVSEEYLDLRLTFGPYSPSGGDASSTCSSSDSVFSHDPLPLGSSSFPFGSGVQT

For `COc1cc(C#N)cc(-c2n[nH]c3ccc(O[C@H](C)c4c(C)cnnc4C)cc23)c1` [Example 53, 3-[5-[(1R)-1-(3,5-dimethylpyridazin-4-yl)ethoxy]-1H-indazol-3-yl]-5-methoxy-benzonitrile], the Kd on FGFR2 fell in the range of 0.1 to 100 nM; at FGFR1, 250 to 1000 nM; at FGFR4, 0.1 to 100 nM; on FGFR3, 0.1 to 100 nM. Further, the IC50 at BCR-FGFR4 Ba/F3 is 250 to 1000 nM.
As to `Cc1nccc(C(=O)N2CCOc3ncc(-c4n[nH]c5ccc(O[C@H](C)c6c(Cl)cncc6Cl)cc45)cc32)n1` [Example 40, [7-[5-[(1R)-1-(3,5-dichloro-4-pyridyl)ethoxy]-1H-indazol-3-yl]-2,3-dihydro-pyrido[2,3-b][1,4]oxazin-1-yl]-(2-methyl-pyrimidin-4-yl)methanone], the Kd lay in the range of 250 to 1000 nM at FGFR2, 250 to 1000 nM at FGFR1, 0.1 to 100 nM at FGFR4 and 0.1 to 100 nM on FGFR3. Moreover, the IC50 on BCR-FGFR4 Ba/F3 fell in the range of 250 to 1000 nM.
For the compound `COc1cc(-c2n[nH]c3ccc(O[C@H](C)c4c(Cl)cncc4Cl)cc23)cnc1N` [Example 34, 5-[5-[(1R)-1-(3,5-dichloro-4-pyridyl)ethoxy]-1H-indazol-3-yl]-3-methoxy-pyridin-2-amine], the Kd at FGFR2 was 250 to 1000 nM; at FGFR1, 250 to 1000 nM; on FGFR4, 0.1 to 100 nM; at FGFR3 it was 0.1 to 100 nM. Also, the IC50 on BCR-FGFR4 Ba/F3 lay in the range of 250 to 1000 nM.
For `C[C@@H](Oc1ccc2[nH]nc(-c3cnc4c(c3)N(C(=O)c3ccccn3)CCO4)c2c1)c1c(Cl)cncc1Cl` [Example 20, [7-[5-[(1R)-1-(3,5-dichloro-4-pyridyl)ethoxy]-1H-indazol-3-yl]-2,3-dihydropyrido[2,3-b][1,4]oxazin-1-yl]-(2-pyridyl)methanone], the Kd lay in the range of 100 to 250 nM on FGFR2, 100 to 250 nM on FGFR1, 0.1 to 100 nM on FGFR4 and 0.1 to 100 nM on FGFR3. In addition, at BCR-FGFR4 Ba/F3, the IC50 was in the range of 250 to 1000 nM.
As for `C[C@@H](Oc1ccc2[nH]nc(-c3cnc4c(c3)N(CCO)CCO4)c2c1)c1c(Cl)cncc1Cl` [Example 49, 2-[7-[5-[(1R)-1-(3,5-dichloro-4-pyridyl)ethoxy]-1H-indazol-3-yl]-2,3-dihydro-pyrido[2,3-b][1,4]oxazin-1-yl]ethanol], the Kd at FGFR2 is above 1000 nM; on FGFR1 it was above 1000 nM; at FGFR4, 100 to 250 nM; on FGFR3, 250 to 1000 nM. Moreover, the IC50 on BCR-FGFR4 Ba/F3 lay within 250 to 1000 nM.
Take `C[C@@H](Oc1ccc2[nH]nc(-c3ccc(OC4C5CN(S(C)(=O)=O)CC54)nc3)c2c1)c1c(Cl)cncc1Cl` (stereo partly drawn) [Example 162, 5-((R)-1-(3,5-dichloropyridin-4-yl)ethoxy)-3-(6-((3-(methylsulfonyl)-3-azabicyclo[3.1.0]hexan-6-yl)oxy)pyridin-3-yl)-1H-indazole]: the Kd at FGFR2, at FGFR1, at FGFR4 and at FGFR3 was 0.1 to 100 nM each time. Also, the figures for the IC50 at BCR-FGFR1 Ba/F3 and on FGFR3-BAIAP2L1 Ba/F3 were 100 to 250 nM and 0.1 to 100 nM, respectively.
Turning to `CCN1CCC2(CC1)OCc1cc(-c3n[nH]c4ccc(O[C@H](C)c5c(Cl)cncc5Cl)cc34)ccc1O2` [Example 96, (R)-6-(5-(1-(3,5-Dichloropyridin-4-yl)ethoxy)-1H-indazol-3-yl)-1′-ethyl-4H-spiro[benzo[d][1,3]dioxine-2,4′-piperidine]], the Kd on FGFR2, on FGFR1, on FGFR4 and on FGFR3 was 0.1 to 100 nM each time. For the same compound, the IC50 lay in the range of 100 to 250 nM on BCR-FGFR1 Ba/F3 and 0.1 to 100 nM at FGFR3-BAIAP2L1 Ba/F3.
On to `Cc1cc(-c2n[nH]c3ccc(O[C@H](C)c4c(Cl)cncc4Cl)cc23)cnc1NC1CCOCC1` [Example 151, (R)-5-(5-(1-(3,5-Dichloropyridin-4-yl)ethoxy)-1H-indazol-3-yl)-3-methyl-N-(tetrahydro-2H-pyran-4-yl)pyridin-2-amine], for which the dissociation constant (Kd) on FGFR2 lay within 100 to 250 nM; at FGFR1, 100 to 250 nM; on FGFR4, 0.1 to 100 nM; at FGFR3, 0.1 to 100 nM. In addition, the IC50 on BCR-FGFR1 Ba/F3 was 250 to 1000 nM; at FGFR3-BAIAP2L1 Ba/F3, 0.1 to 100 nM.
With `C[C@@H](Oc1ccc2[nH]nc(-c3ccc(NC4CC5(C4)CN(S(C)(=O)=O)C5)nc3)c2c1)c1c(Cl)cncc1Cl` [Example 159, (R)-N-(5-(5-(1-(3,5-dichloropyridin-4-yl)ethoxy)-1H-indazol-3-yl)pyridin-2-yl)-2-(methylsulfonyl)-2-azaspiro[3.3]heptan-6-amine], the Kd on FGFR2, on FGFR1, at FGFR4 and at FGFR3 was 0.1 to 100 nM each time. The IC50 at BCR-FGFR1 Ba/F3 and at FGFR3-BAIAP2L1 Ba/F3 was 0.1 to 100 nM in each case.
For the compound `Cc1ncc(Cl)c([C@@H](C)Oc2ccc3[nH]nc(-c4ccc(NC5CCOCC5)nc4)c3c2)c1Cl` [Example 156], the equilibrium dissociation constant (Kd) at FGFR2, on FGFR1, on FGFR4 and on FGFR3 was 0.1 to 100 nM each time. The IC50 at BCR-FGFR1 Ba/F3 is 100 to 250 nM; on FGFR3-BAIAP2L1 Ba/F3, 0.1 to 100 nM.
Regarding `Cc1cnnc(C)c1[C@@H](C)Oc1ccc2[nH]nc(-c3ccc4c(c3)COC3(CCN(C(C)C)CC3)O4)c2c1` [Example 112, (R)-6-(5-(1-(3,5-dimethylpyridazin-4-yl)ethoxy)-1H-indazol-3-yl)-1′-isopropyl-4H-spiro[benzo[d][1,3]dioxine-2,4′-piperidine]], the Kd on FGFR2, on FGFR1, at FGFR4 and on FGFR3 was 0.1 to 100 nM in each case. Also, the IC50 at BCR-FGFR1 Ba/F3 and on FGFR3-BAIAP2L1 Ba/F3 was 0.1 to 100 nM in each case.
Regarding `Cc1cc(-c2n[nH]c3ccc(O[C@H](C)c4c(Cl)cncc4Cl)cc23)cnc1N[C@H]1CCOC1` [Example 153, 5-(5-((R)-1-(3,5-dichloropyridin-4-yl)ethoxy)-1H-indazol-3-yl)-3-methyl-N-((S)-tetrahydrofuran-3-yl)pyridin-2-amine], the Kd on FGFR2, on FGFR1, at FGFR4 and at FGFR3 was 0.1 to 100 nM in each case. In addition, the IC50 lay in the range of 250 to 1000 nM at BCR-FGFR1 Ba/F3 and 0.1 to 100 nM on FGFR3-BAIAP2L1 Ba/F3.
Take `Cc1ncc(Cl)c([C@@H](C)Oc2ccc3[nH]nc(-c4ccc(O[C@H]5CCOC5)nc4)c3c2)c1Cl` [Example 150, 5-[(1R)-1-(3,5-dichloro-2-methyl-4-pyridyl)ethoxy]-3-[6-[(3S)-tetrahydrofuran-3-yl]oxy-3-pyridyl]-1H-indazole]: the Kd on FGFR2, on FGFR1, on FGFR4 and on FGFR3 was 0.1 to 100 nM throughout. For the same compound, the IC50 on BCR-FGFR1 Ba/F3 lay within 250 to 1000 nM; at FGFR3-BAIAP2L1 Ba/F3, 0.1 to 100 nM.
In the case of `Cc1ncc(Cl)c([C@@H](C)Oc2ccc3[nH]nc(-c4ccc5c(c4)COC4(CCN(S(C)(=O)=O)CC4)O5)c3c2)c1Cl` [Example 163, (R)-6-(5-(1-(3,5-Dichloro-2-methylpyridin-4-yl)ethoxy)-1H-indazol-3-yl)-1′-(methylsulfonyl)-4H-spiro[benzo[d][1,3]dioxine-2,4′-piperidine]], the Kd lay in the range of 0.1 to 100 nM at FGFR2, 100 to 250 nM at FGFR1, 100 to 250 nM on FGFR4 and 0.1 to 100 nM on FGFR3. For the same compound, the IC50 on BCR-FGFR1 Ba/F3 is 250 to 1000 nM; at FGFR3-BAIAP2L1 Ba/F3 it was 0.1 to 100 nM.
`Cc1cc(-c2n[nH]c3ccc(O[C@H](C)c4c(Cl)cnc(C)c4Cl)cc23)cnc1O[C@@H]1CCOC1` [Example 148, 5-((R)-1-(3,5-Dichloro-2-methylpyridin-4-yl)ethoxy)-3-(5-methyl-6-(((R)-tetrahydrofuran-3-yl)oxy)pyridin-3-yl)-1H-indazole]: the Kd on FGFR2 fell in the range of 250 to 1000 nM; at FGFR1, 250 to 1000 nM; on FGFR4 it was 0.1 to 100 nM; at FGFR3 it was 0.1 to 100 nM. Moreover, the IC50 at BCR-FGFR1 Ba/F3 was in the range of 250 to 1000 nM; on FGFR3-BAIAP2L1 Ba/F3, 100 to 250 nM.
